Laboratory results as given in patent US20240190880A1 (THE REGENTS OF THE UNIVERSITY OF MICHIGAN, priority 2021, published 2024).
Like-named read-outs stand apart in the source and are kept apart here.

Biological target: T1, ER (Homo sapiens, UniProt P03372)
T1 construct: host or cells: T47D and MCF7 human breast cancer cells
T1 sequence (P03372 1-595): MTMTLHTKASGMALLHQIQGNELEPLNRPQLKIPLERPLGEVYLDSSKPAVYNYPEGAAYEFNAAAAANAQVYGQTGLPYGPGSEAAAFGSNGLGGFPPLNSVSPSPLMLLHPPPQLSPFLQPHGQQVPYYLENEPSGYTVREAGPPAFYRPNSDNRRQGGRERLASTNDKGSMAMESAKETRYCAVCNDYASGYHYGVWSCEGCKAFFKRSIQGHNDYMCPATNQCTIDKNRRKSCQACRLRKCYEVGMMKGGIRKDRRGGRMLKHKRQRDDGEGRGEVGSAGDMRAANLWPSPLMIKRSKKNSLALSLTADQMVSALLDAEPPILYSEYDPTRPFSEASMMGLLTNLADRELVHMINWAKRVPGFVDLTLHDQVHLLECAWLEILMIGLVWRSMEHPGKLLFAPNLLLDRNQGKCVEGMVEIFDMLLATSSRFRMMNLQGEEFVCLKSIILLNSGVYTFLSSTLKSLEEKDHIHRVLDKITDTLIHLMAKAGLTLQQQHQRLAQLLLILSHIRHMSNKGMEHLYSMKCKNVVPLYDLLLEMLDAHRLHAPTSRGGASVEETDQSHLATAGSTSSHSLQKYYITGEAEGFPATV
Assay: ER degradation activity, in-cell western blot analysis in T47D cells
Format: cell-based
Procedure, shortened: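 T47D cells grown in DMEM with 10% FBS were treated with compounds for 16 hours at 0.5% DMSO final. ER was detected by in-cell western using 680/800 near-infrared secondary antibodies. Residual ER is given as percent of untreated and DMSO-treated wells set to 100%.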

[1] = 16 hours, Table A does not say which cell line (T47D or MCF7), read-out: Potency (DC50)
[2] = compounds 16 hours, Table A does not say whether T47D or MCF7, read-out: Potency (DC50)

SMILES | DC50 [1] [nM] | DC50 [2] [nM]
O=C1CCC(N2C(=O)c3cc4c(cc3C2=O)CN(CC2CCN(CC3(F)CN(c5ccc([C@@H]6c7ccc(O)cc7CC[C@@H]6c6ccccc6)cc5)C3)CC2)C4)C(=O)N1 (stereo partly drawn) [E 286, 2-(2,6-dioxopiperidin-3-yl)-6-((1-((3-fluoro-1-(4-((1R,2S)-6-hydroxy-2-phenyl-1,2,3,4-tetrahydronaphthalen-1-yl)phenyl)azetidin-3-yl)methyl)piperidin-4-yl)methyl)-6,7-dihydropyrrolo[3,4-f]isoindole-1,3(2H,5H)-dione] | > 100 | –
COc1cc(N2CCC3(CCN(C(=O)CN4Cc5cc6c(cc5C4)C(=O)N(C4CCC(=O)NC4=O)C6=O)CC3)CC2)ccc1[C@@H]1c2[nH]c3ccccc3c2C[C@@H](C)N1CC(C)(C)F (stereo partly drawn) [E 514, 2-(2,6-dioxopiperidin-3-yl)-6-(2-(9-(4-((1R,3R)-2-(2-fluoro-2-methylpropyl)-3-methyl-2,3,4,9-tetrahydro-1H-pyrido[3,4-b]indol-1-yl)-3-methoxyphenyl)-3,9-diazaspiro[5.5]undecan-3-yl)-2-oxoethyl)-6,7-dihydropyrrolo[3,4-f]isoindole-1,3(2H,5H)-dione] | – | 10 to 100
C[C@@H]1Cc2cc(O)ccc2[C@@H](c2c(F)cc(N(C)C3CC4(CCN(C(=O)CN5Cc6cc7c(cc6C5)C(=O)N(C5CCC(=O)NC5=O)C7=O)CC4)C3)cc2F)N1CC(F)F (stereo partly drawn) [E 452, 6-(2-(2-((4-((1S,3R)-2-(2,2-difluoroethyl)-6-hydroxy-3-methyl-1,2,3,4-tetrahydroisoquinolin-1-yl)-3,5-difluorophenyl)(methyl)amino)-7-azaspiro[3.5]nonan-7-yl)-2-oxoethyl)-2-(2,6-dioxopiperidin-3-yl)-6,7-dihydropyrrolo[3,4-f]isoindole-1,3(2H,5H)-dione] | – | 10 to 100
C[C@@H]1Cc2c([nH]c3ccccc23)[C@@H](c2c(F)cc(N3CC4(CN(C(=O)CN5Cc6cc7c(cc6C5)C(=O)N(C5CCC(=O)NC5=O)C7)C4)C3)cc2F)N1CC(F)F (stereo partly drawn) [E 71, 3-(6-(2-(6-(4-((1R,3R)-2-(2,2-difluoroethyl)-3-methyl-2,3,4,9-tetrahydro-1H-pyrido[3,4-b]indol-1-yl)-3,5-difluorophenyl)-2,6-diazaspiro[3.3]heptan-2-yl)-2-oxoethyl)-1-oxo-3,5,6,7-tetrahydropyrrolo[3,4-f]isoindol-2(1H)-yl)piperidine-2,6-dione] | < 10 | –
C[C@@H]1Cc2cc(O)ccc2[C@@H](c2ccc(N3CCC4(CCN(C(=O)CN5Cc6cc7c(cc6C5)C(=O)N(C5CCC(=O)NC5=O)C7=O)CC4)CC3)cc2)N1c1ccc(F)cc1 (stereo partly drawn) [E 462, 2-(2,6-dioxopiperidin-3-yl)-6-(2-(9-(4-((1R,3R)-2-(4-fluorophenyl)-6-hydroxy-3-methyl-1,2,3,4-tetrahydroisoquinolin-1-yl)phenyl)-3,9-diazaspiro[5.5]undecan-3-yl)-2-oxoethyl)-6,7-dihydropyrrolo[3,4-f]isoindole-1,3(2H,5H)-dione] | – | 10 to 100
C[C@@H]1Cc2c([nH]c3ccccc23)[C@@H](c2c(F)cc(N3CC(C(=O)N4CC(N5Cc6cc7c(cc6C5)C(=O)N(C5CCC(=O)NC5=O)C7=O)C4)C3)cc2F)N1CC(F)F (stereo partly drawn) [E 229, 6-(1-(1-(4-((1R,3R)-2-(2,2-difluoroethyl)-3-methyl-2,3,4,9-tetrahydro-1H-pyrido[3,4-b]indol-1-yl)-3,5-difluorophenyl)azetidine-3-carbonyl)azetidin-3-yl)-2-(2,6-dioxopiperidin-3-yl)-6,7-dihydropyrrolo[3,4-f]isoindole-1,3(2H,5H)-dione] | 10 to 100 | –
C[C@@H]1Cc2cc(O)ccc2C(c2ccc(N3CCC(C(=O)N4CCC(N5Cc6cc7c(cc6C5)C(=O)N(C5CCC(=O)NC5=O)C7=O)CC4)CC3)cc2)N1CC(F)F (stereo partly drawn) [E 321, 6-(1-(1-(4-((3R)-2-(2,2-difluoroethyl)-6-hydroxy-3-methyl-1,2,3,4-tetrahydroisoquinolin-1-yl)phenyl)piperidine-4-carbonyl)piperidin-4-yl)-2-(2,6-dioxopiperidin-3-yl)-6,7-dihydropyrrolo[3,4-f]isoindole-1,3(2H,5H)-dione] | < 10 | –
C[C@@H]1Cc2c([nH]c3ccccc23)[C@@H](c2c(F)cc(N3CC(F)(C(=O)N4CCC(F)(CN5Cc6cc7c(cc6C5)C(=O)N(C5CCC(=O)NC5=O)C7=O)CC4)C3)cc2F)N1CC(F)F (stereo partly drawn) [E 210, 6-((1-(1-(4-((1R,3R)-2-(2,2-difluoroethyl)-3-methyl-2,3,4,9-tetrahydro-1H-pyrido[3,4-b]indol-1-yl)-3,5-difluorophenyl)-3-fluoroazetidine-3-carbonyl)-4-fluoropiperidin-4-yl)methyl)-2-(2,6-dioxopiperidin-3-yl)-6,7-dihydropyrrolo[3,4-f]isoindole-1,3(2H,5H)-dione] | > 100 | –
O=C1CCC(N2Cc3cc4c(cc3C2=O)CN(C(=O)[C@H]2CC[C@H](CN3CC(Oc5ccc([C@@H]6c7ccc(O)cc7CC[C@@H]6c6ccccc6)cc5)C3)CC2)C4)C(=O)N1 (mixture of isomers) [E 491] | – | 10 to 100
C[C@@H]1Cc2cc(O)ccc2[C@@H](c2ccc(N3CCC(C(=O)N4CCC(N5Cc6cc7c(cc6C5)C(=O)N(C5CCC(=O)NC5=O)C7=O)CC4)CC3)cc2F)N1CC(F)F (stereo partly drawn) [E 323, 6-(1-(1-(4-((1S,3R)-2-(2,2-difluoroethyl)-6-hydroxy-3-methyl-1,2,3,4-tetrahydroisoquinolin-1-yl)-3-fluorophenyl)piperidine-4-carbonyl)piperidin-4-yl)-2-(2,6-dioxopiperidin-3-yl)-6,7-dihydropyrrolo[3,4-f]isoindole-1,3(2H,5H)-dione] | < 10 | –
O=C1CCC(N2C(=O)c3cc4c(cc3C2=O)CN(C[C@H]2CC[C@H](C(=O)N3CC(Oc5ccc([C@@H]6c7ccc(O)cc7CC[C@@H]6c6ccccc6)cc5)C3)CC2)C4)C(=O)N1 (mixture of isomers) [E 498, 2-(2,6-dioxopiperidin-3-yl)-6-(((IRS,4SR)-4-(3-(4-((1R,2S)-6-hydroxy-2-phenyl-1,2,3,4-tetrahydronaphthalen-1-yl)phenoxy)azetidine-1-carbonyl)cyclohexyl)methyl)-6,7-dihydropyrrolo[3,4-f]isoindole-1,3(2H,5H)-dione] | – | 10 to 100
O=C1CCC(N2C(=O)c3cc4c(cc3C2=O)CC2(C4)CN(CC3CCN(c4ccc([C@@H]5c6ccc(O)cc6CC[C@@H]5c5ccccc5)cc4)CC3)C2)C(=O)N1 (stereo partly drawn) [E 500, 2′-(2,6-dioxopiperidin-3-yl)-1-((1-(4-((1R,2S)-6-hydroxy-2-phenyl-1,2,3,4-tetrahydronaphthalen-1-yl)phenyl)piperidin-4-yl)methyl)-5′,7′-dihydro-1′H-spiro[azetidine-3,6′-cyclopenta[f]isoindole]-1′,3′(2′H)-dione] | – | > 100
O=C1CCC(N2C(=O)c3cc4c(cc3C2=O)CN(CC(=O)N2CCC3(CC2)CCN(c2ncc([C@@H]5c6ccc(O)cc6CC[C@@H]5c5ccccc5)cn2)CC3)C4)C(=O)N1 (mixture of isomers) [E 298, Rac-2-(2,6-dioxopiperidin-3-yl)-6-(2-(9-(5-((1S,2S)-6-hydroxy-2-phenyl-1,2,3,4-tetrahydronaphthalen-1-yl)pyrimidin-2-yl)-3,9-diazaspiro[5.5]undecan-3-yl)-2-oxoethyl)-6,7-dihydropyrrolo[3,4-f]isoindole-1,3(2H,5H)-dione] | > 100 | –
O=C1CCC(N2C(=O)c3cc4c(cc3C2=O)CN(CC2(F)CN(C(=O)C3CCN(c5ccc([C@@H]6c7ccc(O)cc7CC[C@@H]6c6ccccc6)cc5)CC3)C2)C4)C(=O)N1 (stereo partly drawn) [E 207, 2-(2,6-dioxopiperidin-3-yl)-6-((3-fluoro-1-(1-(4-((1R,2S)-6-hydroxy-2-phenyl-1,2,3,4-tetrahydronaphthalen-1-yl)phenyl)piperidine-4-carbonyl)azetidin-3-yl)methyl)-6,7-dihydropyrrolo[3,4-f]isoindole-1,3(2H,5H)-dione] | > 100 | –
C[C@@H]1Cc2cc(O)ccc2[C@@H](c2c(F)cc(N3CCC4(CCN(CC(=O)N5Cc6cc7c(cc6C5)C(=O)N(C5CCC(=O)NC5=O)C7)C4)CC3)cc2F)N1CC(C)(F)F (stereo partly drawn) [E 34, 3-(6-(2-(8-(4-((1S,3R)-2-(2,2-difluoropropyl)-6-hydroxy-3-methyl-1,2,3,4-tetrahydroisoquinolin-1-yl)-3,5-difluorophenyl)-2,8-diazaspiro[4.5]decan-2-yl)acetyl)-1-oxo-3,5,6,7-tetrahydropyrrolo[3,4-f]isoindol-2(1H)-yl)piperidine-2,6-dione] | 10 to 100 | –
C[C@@H]1Cc2c([nH]c3ccccc23)[C@@H](c2cnc(N3CCC4(CC3)CN(C(=O)CN3Cc5cc6c(cc5C3)C(=O)N(C3CCC(=O)NC3=O)C6=O)C4)nc2)N1CC(F)F (stereo partly drawn) [E 259, 6-(2-(7-(5-((1R,3R)-2-(2,2-difluoroethyl)-3-methyl-2,3,4,9-tetrahydro-1H-pyrido[3,4-b]indol-1-yl)pyrimidin-2-yl)-2,7-diazaspiro[3.5]nonan-2-yl)-2-oxoethyl)-2-(2,6-dioxopiperidin-3-yl)-6,7-dihydropyrrolo[3,4-f]isoindole-1,3(2H,5H)-dione] | < 10 | –
